Experimental data: patent US9408871B2, “Methods for inhibiting complement activation and uses thereof” (THE UNIVERSITY OF BRITISH COLUMBIA, priority 2013, dated 2016)

How the values were obtained:
[1] = tested on: terminal pathway (TP) of complement; test: serum-based terminal pathway (TP) hemolytic assay (2% NHS, C5b,6, chicken erythrocytes); format: cell-based, human; conditions: 100 μM (based on the monomeric form)
Source text: Erythrocyte lysis assays were used to measure complement-mediated hemolytic activity. Erythrocyte (RBC) lysis assays as previously described^18,37 were used to measure complement activity. For alternative pathway assays and for total hemolytic activity assays, unsensitized rabbit erythrocytes were used. Chicken erythrocytes were used for the terminal pathway assays.
Erythrocytes were washed three times in GVB with the reaction buffers as indicated, and counted using the Advia 120 Hematology System from Siemens (Siemens, Erlangen, Germany). Reactions in 300 μL were allowed to proceed for 30 min at 37° C., after which unlysed cells were pelleted by centrifugation at 600×g. Erythrocyte lysis, reflected by the released hemoglobin in the supernatant, was quantified by measuring the absorbance at 405 nm using the Mithras LB 940 microplate reader from Berthold Technologies (Bad Wildbad, Germany). Percent lysis was determined relative to the control of 100% lysis with H2O. For total hemolytic and terminal pathway (TP) assays, the concentrations of NHS and C5b,6 to initiate complement activation were established from pilot studies to obtain ˜70-80% erythrocyte lysis at 30 min.
For serum-based terminal pathway (TP) hemolytic assays, components were diluted in GVB containing 10 mM EDTA (GVB-E), the latter added to prevent upstream complement activation and generation of endogenous C5b,6. 2% NHS was used as the source of C7, C8, and C9, and hemolysis of chicken erythrocytes (cRBC) (3.3×10^8 cells/mL) was initiated by addition of exogenous purified C5b,6, the concentration of which was determined from pilot studies to yield ˜70-80% lysis at 30 min. No C5b,6 activity was detected in the NHS prior to initiating the reaction. For some experiments, instead of NHS, purified terminal pathway complement components were used in the TP assays. In these assays, in a final volume of 300 uL GVB, lysis was achieved by the sequential addition of the following components: cRBC (3.3×10^8 cells/mL), C5b,6 (20 μM), C7 (15 nM), C8 (10 nM), and C9 (25 nM). The unlysed cell pellet was removed by centrifugation and lysis was measured immediately after the 30-minute reaction. A standard curve for the terminal pathway assay using serum as the source of complement (FIG. 2) was generated using a fixed serum concentration at 2%, and increasing concentrations of purified C5b,6 dose-dependently lysed chicken erythrocytes after 30 min at 37° C. […] of purified C5b,6 was therefore used to fix baseline lysis at ˜80% to allow assessment of the inhibitory effects of polyphosphate in serum.
TP activity in NHS(2%), measured by lysis of cRBC, was initiated by adding a limiting amount of exogenous purified C5b,6 (250 pM) to achieve 70-80% lysis after 30 min. A molar excess of EDTA was used to prevent upstream activation of complement and generation of endogenous C5b,6. In the absence of C5b,6, there was no detectable complement-mediated cRBC lysis. P1 at concentrations ranging from 0.1 to 1000 μM, had no effect on complement-mediated hemolysis in NHS via the TP (FIG. 5A). By contrast, polyphosphate>1000 inhibited the TP in serum in a concentration-dependent manner, with an IC50 of ˜10 μM polyphosphate>1000 (dotted lines) (calculated based on monomeric phosphate).

[2] = target: T1, C1-esterase inhibitor (C1-inh) (Homo sapiens, UniProt P05155); test: C1s-mediated cleavage of C4 in the presence of C1-inh (SDS-PAGE); format: biochemical; conditions: 10-500 μM, 2.5 nM C1-inh
T1 sequence (P05155 23-500): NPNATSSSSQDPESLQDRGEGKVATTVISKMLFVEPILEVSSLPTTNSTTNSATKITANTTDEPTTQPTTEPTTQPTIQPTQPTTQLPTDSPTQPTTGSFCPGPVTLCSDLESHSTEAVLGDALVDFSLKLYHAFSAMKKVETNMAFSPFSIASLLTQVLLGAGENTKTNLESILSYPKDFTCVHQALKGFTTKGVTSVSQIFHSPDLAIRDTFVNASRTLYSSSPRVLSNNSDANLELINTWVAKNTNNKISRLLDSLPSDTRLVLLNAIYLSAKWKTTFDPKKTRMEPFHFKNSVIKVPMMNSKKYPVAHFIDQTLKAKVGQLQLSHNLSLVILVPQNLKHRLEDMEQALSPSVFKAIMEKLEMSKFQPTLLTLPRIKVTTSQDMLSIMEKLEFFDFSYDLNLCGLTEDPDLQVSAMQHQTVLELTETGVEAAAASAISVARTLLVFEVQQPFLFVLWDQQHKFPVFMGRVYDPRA
Procedure: We tested whether polyP affects the inhibitory properties of C1-inh on C1s-mediated cleavage and activation of complement factor C4 and C2. SDS-PAGE followed by coomassie staining of gels was used to monitor cleavage of C4 by C1s in the presence/absence of C1-inh and/or polyP in a purified system.
2.5 nM C1s (reaction 1) or 2.5 nM C1-inh (reaction 2), and 300 μM polyP were incubated in 20 mM Hepes, 0.15 M NaCl, pH 7.5, 0.01% Tween buffer for 90 minutes at 37° C. 2.5 nM C1-inh (reaction 1) or 0.5 nM C1s (reaction 2) was added and incubated for 30 minutes at 37° C. 1.5 μM C4 was added and incubated for 5 minutes at 37° C. The reactions were quenched with 5× loading buffer and β-ME. Samples were taken and run on an SDS-PAGE 8% gel (FIG. 15B).
Briefly, 2.5 nM C1s with 5-300 μM of polyP130 (reaction 1; FIG. 16A) or polyP1000 (reaction 2; FIG. 16B) were incubated in 20 mM Hepes, 0.15 M NaCl, pH 7.5, 0.01% Tween buffer for 90 minutes at 37° C. 2.5 nM C1s was added and incubated for 30 minutes at 37° C. 1.5 μM C4 was added and incubated for 5 minutes at 37° C. The reactions were quenched with 5× loading buffer and β-ME.
Briefly, 2.5 nM C1s with 10-500 μM of polyP14, polyP60, polyP130, polyP1000 were incubated in 20 mM Hepes, 0.15 M NaCl, pH 7.5, 0.01% Tween buffer for 90 minutes at 37° C. 2.5 nM C1s was added and incubated for 30 minutes at 37° C. […]

Compound | effect on TP hemolytic activity at equivalent concentration [1] | effect of polyP size on C1-inh (C4 cleavage by C1s) [2]
O=P([O-])([O-])OP(=O)([O-])[O-].[Na+].[Na+].[Na+].[Na+] [P2, diphosphate (Na4P2O7)] | had no effect | had no effect on C1-inh
O=P([O-])([O-])OP(=O)([O-])OP(=O)([O-])[O-].[Na+].[Na+].[Na+].[Na+].[Na+] [P3, triphosphate (Na5P3O10)] | had no effect | had no effect on C1-inh
